Measurements: patent US20150322094A1, “USE OF SUBSTITUTED 2,3-DIHYDRO-1-BENZOFURAN-4-CARBOXYLIC ACIDS OR SALTS THEREOF AS ACTIVE SUBSTANCES AGAINST ABIOTIC PLANT STRESS” (Bayer CropScience AG, priority 2012, published 2015)

How the values were obtained:
Type in all cases: in vivo
BRSNS (Brassica napus) = assay: Drought stress, spray application, greenhouse pot test; settings: evaluated after recovery phase
Description: (§1) Seeds of monocotyledonous and dicotyledonous crop plants were laid out in sandy loam in wood-fiber pots, covered with soil or sand and cultivated in a greenhouse under good growth conditions. The test plants were treated at the early leaf stage (BBCH10-BBCH13). To assure uniform water supply before commencement of stress, the potted plants were supplied with water by dam irrigation prior to substance application. The inventive compounds, formulated in the form of wettable powders (WP), were sprayed onto the green parts of the plants as an aqueous suspension at an equivalent water application rate of 600 l/ha with addition of 0.2% wetting agent (e.g. agrotin). Substance application was followed immediately by stress treatment of the plants. For this purpose, the pots were transferred into plastic inserts in order to prevent them from subsequently drying out too quickly.
(§2) Drought stress was induced by gradual drying out under the following conditions:
(§3) “Day”: 14 hours with illumination at 26° C.
(§4) “Night”: 10 hours without illumination at 18° C.
(§5) The duration of the respective stress phases was guided mainly by the state of the untreated, stressed control plants and thus varied from crop to crop. It was ended (by re-irrigating and transfer to a greenhouse with good growth conditions) as soon as irreversible damage was observed on the untreated, stressed control plants. In the case of dicotyledonous crops, for example oilseed rape and soya, the duration of the drought stress phase varied between 3 and 6 days, in the case of monocotyledonous crops, for example wheat, barley or corn, between 6 and 11 days.
(§6) The end of the stress phase was followed by an approx. 5-7-day recovery phase, during which the plants were once again kept under good growth conditions in a greenhouse.
(§7) In order to rule out any influence of the effects observed by any fungicidal or insecticidal action of the test compounds, it was additionally ensured that the tests proceeded without fungal infection or insect infestation.
(§8) After the recovery phase had ended, the intensities of damage were analysed in visual comparison to untreated, unstressed controls for the same age. The intensity of damage was first recorded as a percentage (100%=plants have died, 0%=like control plants). These values were then used to calculate the efficacy of the test compounds (=percentage reduction in the intensity of damage as a result of substance application) by the following formula: […]
(§9) DVus: damage value of the untreated, stressed control
(§10) DVts: damage value of the plants treated with test compound
(§11) In each trial, 3 pots per crop and dosage were treated and evaluated; the resulting efficacies are thus averages. The values in tables A-1, A-2 and A-3 below are again averages from one to three independent trials.

ZEAMX (Zea mays) [1] = assay: as above; settings: average of one to three independent trials
Description: as §1, §2, §3, §4, §5, §6, §7, §8, §9, §10, §11

[2] = tested on: TRZAS (Triticum aestivum); assay: as above; settings: average of one to three independent trials
Description: as §1, §2, §3, §4, §5, §6, §7, §8, §9, §10, §11

ZEAMX (Zea mays) [3] = assay: Cold stress, spray application, climate-controlled chamber test; settings: averages from one to three independent trials
From the text: (§12) Seeds of monocotyledonous and dicotyledonous crop plants were laid out in sandy loam in plastic pots, covered with soil or sand and cultivated in a greenhouse under good growth conditions until the early leaf stage (BBCH12). The trial plants were then likewise treated at the early leaf stage. To assure uniform water supply before commencement of stress, the potted plants were supplied with water by dam irrigation prior to substance application. The inventive compounds, formulated in the form of wettable powders (WP), were sprayed onto the green parts of the plants as an aqueous suspension at an equivalent water application rate of 300 I/ha with addition of 0.2% wetting agent (e.g. agrotin). Substance application was followed immediately by stress treatment of the plants. For this purpose, the plants in question were transferred into a climate-controlled chamber and, after a wait period of 24 h, subjected to a cold stress profile with the following conditions: • 1) “Morning” warm-up phase from 2 to 16° C. for 5 hours • 2) “Day” at 16° C. for 6 hours • 3) “Evening” cool-down phase from 16 to 2° C. for 7 hours • 4) “Night” at 2° C. for 6 hours
(§13) Over the entire trial period, both the stressed trial plants and the control plants were supplied with the same amount of water which enabled good growth under control conditions. For this purpose, the unstressed control plants which served as a comparison were kept in a greenhouse under good growth conditions and observing the following conditions: • 1) “Day”: 14 hours with illumination at 22° C. • 2) “Night”: 10 hours without illumination at 12° C.
(§14) After a period of two weeks of the cold stress profile, the stress phase was ended, and there followed a recovery phase of about three weeks, during which the plants were once again kept in a greenhouse under good growth conditions. In order to rule out any influence of the effects observed by any fungicidal or insecticidal action of the test compounds, it was additionally ensured that the tests proceeded without fungal infection or insect infestation.
as §8, §9, §10
(§15) In each trial, 8 pots per crop and dosage were treated and evaluated; the resulting efficacies are therefore averages. The values in tables B-1 and B-2 below are again averages from one to three independent trials.

[4] = tested on: TRZAS (Triticum aestivum); assay: as above; settings: averages from one to three independent trials
From the text: as §12, §13, §14, §8, §9, §10, §15

## COC(=O)c1c(O)ccc2c1C(C)C(c1ccc(OC)cc1)O2 (centres unmarked) [I.1-20]
BRSNS (Brassica napus); dosage 2.5 g/ha
  EF (BRSNS): efficacy = percentage reduction in the intensity of damage: >5%

## CCOC(=O)c1c(O)ccc2c1C(C)C(c1ccc(OC)c(OC)c1)O2 (centres unmarked) [I.4-21]
BRSNS (Brassica napus); dosage 2.5 g/ha
  EF (BRSNS): efficacy = percentage reduction in the intensity of damage: >5%

## CCOC(=O)c1c(O)ccc2c1CC(c1ccc(OC)cc1)O2 (centres unmarked) [I.4-4]
ZEAMX (Zea mays) [1]; dosage 25 g/ha
  EF (ZEAMX): efficacy, percentage reduction in the intensity of damage: >5%
[2]; dosage 25 g/ha
  EF (TRZAS): efficacy, percentage reduction in the intensity of damage: >5%
BRSNS (Brassica napus); dosage 2.5 g/ha
  EF (BRSNS): efficacy = percentage reduction in the intensity of damage: >5%
ZEAMX (Zea mays) [3]; dosage 6.25 g/ha
  EF (ZEAMX): efficacy, percentage reduction in the intensity of damage: >5%
[4]; dosage 25 g/ha
  EF (TRZAS): efficacy, percentage reduction in the intensity of damage: >5%

## COC(=O)c1c(O)ccc2c1CC(c1ccc(OCc3ccccc3)c(OC)c1)O2 (centres unmarked) [I.1-35]
ZEAMX (Zea mays) [1]; dosage 25 g/ha
  EF (ZEAMX): efficacy, percentage reduction in the intensity of damage: >5%
[2]; dosage 25 g/ha
  EF (TRZAS): efficacy, percentage reduction in the intensity of damage: >5%
BRSNS (Brassica napus); dosage 25 g/ha
  EF (BRSNS): efficacy = percentage reduction in the intensity of damage: >5%
ZEAMX (Zea mays) [3]; dosage 25 g/ha
  EF (ZEAMX): efficacy, percentage reduction in the intensity of damage: >5%
[4]; dosage 25 g/ha
  EF (TRZAS): efficacy, percentage reduction in the intensity of damage: >5%

## COC(=O)c1c(O)ccc2c1CC(C)(c1ccc(C)cc1)O2 (centres unmarked) [I.1-44]
ZEAMX (Zea mays) [1]; dosage 25 g/ha
  EF (ZEAMX): efficacy, percentage reduction in the intensity of damage: >5%
BRSNS (Brassica napus); dosage 2.5 g/ha
  EF (BRSNS): efficacy = percentage reduction in the intensity of damage: >5%

## COC(=O)c1c(O)ccc2c1C(C)C(c1ccc(OC)c(OC)c1)O2 (centres unmarked) [I.1-21, Methyl 2-(3,4-dimethoxyphenyl)-5-hydroxy-3-methyl-2,3-dihydro-1-benzofuran-4-carboxylate]
BRSNS (Brassica napus); dosage 25 g/ha
  EF (BRSNS): efficacy = percentage reduction in the intensity of damage: >5%

## COC(=O)c1c(O)ccc2c1CC(c1ccc(Oc3ccccc3)cc1)O2 (centres unmarked) [I.1-41]
ZEAMX (Zea mays) [1]; dosage 25 g/ha
  EF (ZEAMX): efficacy, percentage reduction in the intensity of damage: >5%
BRSNS (Brassica napus); dosage 2.5 g/ha
  EF (BRSNS): efficacy = percentage reduction in the intensity of damage: >5%
ZEAMX (Zea mays) [3]; dosage 6.25 g/ha
  EF (ZEAMX): efficacy, percentage reduction in the intensity of damage: >5%
[4]; dosage 6.25 g/ha
  EF (TRZAS): efficacy, percentage reduction in the intensity of damage: >5%

## COC(=O)c1c(O)ccc2c1CC(c1ccc3ccccc3c1)O2 (centres unmarked) [I.1-48]
ZEAMX (Zea mays) [1]; dosage 250 g/ha
  EF (ZEAMX): efficacy, percentage reduction in the intensity of damage: >5%
BRSNS (Brassica napus); dosage 2.5 g/ha
  EF (BRSNS): efficacy = percentage reduction in the intensity of damage: >5%

## COC(=O)c1c(O)ccc2c1CC(c1ccc(OC)cc1)O2 (centres unmarked) [I.1-4, Methyl 2-(4-methoxyphenyl)-5-hydroxy-2,3-dihydro-1-benzofuran-4-carboxylate]
ZEAMX (Zea mays) [1]; dosage 100 g/ha
  EF (ZEAMX): efficacy, percentage reduction in the intensity of damage: >5%
BRSNS (Brassica napus); dosage 100 g/ha
  EF (BRSNS): efficacy = percentage reduction in the intensity of damage: >5%
ZEAMX (Zea mays) [3]; dosage 25 g/ha
  EF (ZEAMX): efficacy, percentage reduction in the intensity of damage: >5%

## COC(=O)c1c(O)ccc2c1CC(C)(c1ccccc1)O2 (centres unmarked) [I.1-16]
BRSNS (Brassica napus); dosage 2.5 g/ha
  EF (BRSNS): efficacy = percentage reduction in the intensity of damage: >5%

## COC(=O)c1c(OS(=O)(=O)C(F)(F)F)ccc2c1CC(c1ccc(OC)cc1)O2 (centres unmarked) [I.16-4]
ZEAMX (Zea mays) [1]; dosage 25 g/ha
  EF (ZEAMX): efficacy, percentage reduction in the intensity of damage: >5%

## COC(=O)c1c(OC(C)=O)ccc2c1CC(c1ccc(OC)cc1)O2 (centres unmarked) [I.5-4]
BRSNS (Brassica napus); dosage 2.5 g/ha
  EF (BRSNS): efficacy = percentage reduction in the intensity of damage: >5%

## COC(=O)c1c(O)ccc2c1CC(c1cccc(OC)c1)O2 (centres unmarked) [I.1-3]
[2]; dosage 250 g/ha
  EF (TRZAS): efficacy, percentage reduction in the intensity of damage: >5%

## COC(=O)c1c(O)ccc2c1CC(c1ccc(OC)c(OC)c1)O2 (centres unmarked) [I.1-12]
[2]; dosage 25 g/ha
  EF (TRZAS): efficacy, percentage reduction in the intensity of damage: >5%
BRSNS (Brassica napus); dosage 25 g/ha
  EF (BRSNS): efficacy = percentage reduction in the intensity of damage: >5%

## COc1ccc(C2Cc3c(ccc(O)c3C(=O)O)O2)cc1 (centres unmarked) [I.2-4]
BRSNS (Brassica napus); dosage 250 g/ha
  EF (BRSNS): efficacy = percentage reduction in the intensity of damage: >5%

## COC(=O)c1c(O)ccc2c1CC(c1ccc(OC(C)(C)C)cc1)O2 (centres unmarked) [I.1-32]
ZEAMX (Zea mays) [1]; dosage 25 g/ha
  EF (ZEAMX): efficacy, percentage reduction in the intensity of damage: >5%
[2]; dosage 25 g/ha
  EF (TRZAS): efficacy, percentage reduction in the intensity of damage: >5%
BRSNS (Brassica napus); dosage 25 g/ha
  EF (BRSNS): efficacy = percentage reduction in the intensity of damage: >5%

## COC(=O)c1c(O)ccc2c1CC(C)(c1ccc3ccccc3c1)O2 (centres unmarked) [I.1-49]
BRSNS (Brassica napus); dosage 2.5 g/ha
  EF (BRSNS): efficacy = percentage reduction in the intensity of damage: >5%

## COC(=O)c1c(OC(=O)C2CCC2)ccc2c1CC(c1ccc(OC)cc1)O2 (centres unmarked) [I.6-4, Methyl 5-[(cyclobutylcarbonyl)oxy]-2-(4-methoxyphenyl)-2,3-dihydro-1-benzofuran-4-carboxylate]
[2]; dosage 25 g/ha
  EF (TRZAS): efficacy, percentage reduction in the intensity of damage: >5%
BRSNS (Brassica napus); dosage 25 g/ha
  EF (BRSNS): efficacy = percentage reduction in the intensity of damage: >5%

## COC(=O)c1c(O)ccc2c1CC(c1ccc(OC(C)=O)cc1)O2 (centres unmarked) [I.1-40]
ZEAMX (Zea mays) [1]; dosage 25 g/ha
  EF (ZEAMX): efficacy, percentage reduction in the intensity of damage: >5%
[2]; dosage 25 g/ha
  EF (TRZAS): efficacy, percentage reduction in the intensity of damage: >5%
ZEAMX (Zea mays) [3]; dosage 25 g/ha
  EF (ZEAMX): efficacy, percentage reduction in the intensity of damage: >5%
[4]; dosage 25 g/ha
  EF (TRZAS): efficacy, percentage reduction in the intensity of damage: >5%
